# Reference: US20240059703A1 (AMGEN INC., priority 2021, published 2024)
# Target: KRAS G12C (Homo sapiens (Human), UniProt P01116, C118A/G12C)
# Test: 2 h coupled exchange assay
# Type: biochemical
# Conditions: Avg 2 h Coupled exchange IC50, 2 h compound pre-incubation
# Method: The term “2 h coupled exchange assay” or “20 h coupled exchange assay” as used herein refers to the assay described in the Section entitled “BIOLOGICAL EVALUATION.”
# Chain of KRAS G12C (P01116 other isoform, or with tags, fused parts or gaps G12C/C118A): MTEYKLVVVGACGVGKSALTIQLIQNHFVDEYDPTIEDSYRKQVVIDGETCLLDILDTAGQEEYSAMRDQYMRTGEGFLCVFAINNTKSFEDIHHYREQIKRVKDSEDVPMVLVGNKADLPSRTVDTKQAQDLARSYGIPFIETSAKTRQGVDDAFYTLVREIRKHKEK
row,IC50 [µM],Structure (SMILES)
1,76.8,"C=CC(=O)N1CC2(CCN(c3nc4c(c(-c5cc(O)ccc5C)c3F)COC(C)(C)C4)C2)C1 (single isomer, unassigned) [Example 14-61, (M)-1-(6-(3-fluoro-4-(5-hydroxy-2-methylphenyl)-7,7-dimethyl-7,8-dihydro-5H-pyrano[4,3-b]pyridin-2-yl)-2,6-diazaspiro[3.4]octan-2-yl)-2-propen-1-one]"
2,0.696,"C=CC(=O)N1CC2(CCN(c3nc4c(c(-c5cc(O)ccc5C)c3F)COC(C)(C)C4)C2)C1 (single isomer, unassigned) [Example 14-62, (P)-1-(6-(3-fluoro-4-(5-hydroxy-2-methylphenyl)-7,7-dimethyl-7,8-dihydro-5H-pyrano[4,3-b]pyridin-2-yl)-2,6-diazaspiro[3.4]octan-2-yl)-2-propen-1-one]"
3,0.364,"C=CC(=O)N1CC2(CCN(c3nc4c(c(-c5c(C)ccc6cnn(C)c56)c3F)C[C@H]3C[C@@H]4C3(C)C)C2)C1 (single isomer, unassigned) [Example 14-63]"
4,11.8,"C=CC(=O)N1CC2(CCN(c3nc4c(c(-c5c(C)ccc6cnn(C)c56)c3F)C[C@H]3C[C@@H]4C3(C)C)C2)C1 (single isomer, unassigned) [Example 14-64]"
5,33.5,"C=CC(=O)N1CC2(CCN(c3nc4c(c(-c5cccc6cc(O)ccc56)c3F)COC(C)(C)C4)C2)C1 (single isomer, unassigned) [Example 14-66, (P)-1-(6-(3-fluoro-4-(6-hydroxy-1-naphthalenyl)-7,7-dimethyl-7,8-dihydro-5H-pyrano[4,3-b]pyridin-2-yl)-2,6-diazaspiro[3.4]octan-2-yl)-2-propen-1-one]"
6,0.64,"C=CC(=O)N1CC2(CCN(c3nc4c(c(-c5cccc6cc(O)ccc56)c3F)COC(C)(C)C4)C2)C1 (single isomer, unassigned) [Example 14-67, (M)-1-(6-(3-fluoro-4-(6-hydroxy-1-naphthalenyl)-7,7-dimethyl-7,8-dihydro-5H-pyrano[4,3-b]pyridin-2-yl)-2,6-diazaspiro[3.4]octan-2-yl)-2-propen-1-one]"
7,17,"C=CC(=O)N1CC2(CCN(c3nc4c(c(-c5cc(O)cc6ccccc56)c3F)COC(C)(C)C4)C2)C1 (single isomer, unassigned) [Example 14-69, (M)-1-(6-(3-fluoro-4-(3-hydroxy-1-naphthalenyl)-7,7-dimethyl-7,8-dihydro-5H-pyrano[4,3-b]pyridin-2-yl)-2,6-diazaspiro[3.4]octan-2-yl)-2-propen-1-one]"
8,1.56,"C=CC(=O)N1CC2(CCN(c3nc4c(c(-c5c(C)ccc6[nH]ncc56)c3F)C[C@H]3C[C@@H]4C3(C)C)C2)C1 (single isomer, unassigned) [Example 14-74]"
9,0.726,"C=CC(=O)N1CC2(CCN(c3nc4c(c(-c5c(C)ccc6cnn(C)c56)c3F)C[C@H]3C[C@@H]4C3(C)C)C2)C1 (single isomer, unassigned) [Example 14-75]"
10,0.023,"C=CC(=O)N1CC2(CCN(c3nc4c(c(-c5c(C)c(Cl)cc6cnn(C)c56)c3F)COC(C)(C)C4)C2)C1 (single isomer, unassigned) [Example 14-78, (M)-1-(6-(4-(5-chloro-1,6-dimethyl-1H-indazol-7-yl)-3-fluoro-7,7-dimethyl-7,8-dihydro-5H-pyrano[4,3-b]pyridin-2-yl)-2,6-diazaspiro[3.4]octan-2-yl)-2-propen-1-one]"
11,9.6,"C=CC(=O)N1CC2(CCN(c3nc4c(c(-c5c(C)c(Cl)cc6cnn(C)c56)c3F)COC(C)(C)C4)C2)C1 (single isomer, unassigned) [Example 14-79, (P)-1-(6-(4-(5-chloro-1,6-dimethyl-1H-indazol-7-yl)-3-fluoro-7,7-dimethyl-7,8-dihydro-5H-pyrano[4,3-b]pyridin-2-yl)-2,6-diazaspiro[3.4]octan-2-yl)-2-propen-1-one]"
12,5.76,"C=CC(=O)N1CC2(CCN(c3nc4c(c(-c5c(C)ccc6cn[nH]c56)c3C#N)COC(C)(C)C4)C2)C1 (single isomer, unassigned) [Example 14-82, (M)-7,7-dimethyl-4-(6-methyl-1H-indazol-7-yl)-2-(2-(2-propenoyl)-2,6-diazaspiro[3.4]octan-6-yl)-7,8-dihydro-5H-pyrano[4,3-b]pyridine-3-carbonitrile]"
13,10.4,"C=CC(=O)N1CC2(CCN(c3nc4c(c(-c5c(C)c(Cl)cc6cnn(C)c56)c3C)COC(C)(C)C4)C2)C1 (single isomer, unassigned) [Example 14-88, (M)-1-(6-(4-(5-chloro-1,6-dimethyl-1H-indazol-7-yl)-3,7,7-trimethyl-7,8-dihydro-5H-pyrano[4,3-b]pyridin-2-yl)-2,6-diazaspiro[3.4]octan-2-yl)-2-propen-1-one]"
14,0.602,"C=CC(=O)N1CC2(CCN(c3nc4c(c(-c5c(C)ccc6cnn(C)c56)c3C)COC(C)(C)C4)C2)C1 (single isomer, unassigned) [Example 14-100, (M)-1-(6-(4-(1,6-dimethyl-1H-indazol-7-yl)-3,7,7-trimethyl-7,8-dihydro-5H-pyrano[4,3-b]pyridin-2-yl)-2,6-diazaspiro[3.4]octan-2-yl)-2-propen-1-one]"
15,0.301,"C=CC(=O)N1CC2(CCN(c3nc4c(c(-c5c(C)ccc6cnn(C)c56)c3F)COC(C)(C)C4)C2)C1 (single isomer, unassigned) [Example 14-101, (M)-1-(6-(4-(1,6-dimethyl-1H-indazol-7-yl)-3-fluoro-7,7-dimethyl-7,8-dihydro-5H-pyrano[4,3-b]pyridin-2-yl)-2,6-diazaspiro[3.4]octan-2-yl)-2-propen-1-one]"
16,55.6,"C=CC(=O)N1CC2(CCN(c3nc4c(c(-c5c(C)ccc6cnn(C)c56)c3F)COC(C)(C)C4)C2)C1 (single isomer, unassigned) [Example 14-102, (P)-1-(6-(4-(1,6-dimethyl-1H-indazol-7-yl)-3-fluoro-7,7-dimethyl-7,8-dihydro-5H-pyrano[4,3-b]pyridin-2-yl)-2,6-diazaspiro[3.4]octan-2-yl)-2-propen-1-one]"
17,0.779,"C=CC(=O)N1CC2(CCN(c3nc4cc(-n5ccnc5C)ccc4c(-c4ccccc4Cl)c3C)[C@H]2C)C1 (single isomer, unassigned) [Example 15-5]"
18,3.58,"C=CC(=O)N1CC2(CCN(c3nc4cc(-n5ccnc5C)ccc4c(-c4ccccc4Cl)c3C)[C@H]2C)C1 (single isomer, unassigned) [Example 15-6]"

# Same assay, conditions: Avg 2 h Coupled exchange IC50, 2 h compound pre-incubation, SOS-mediated nucleotide exchange
row,IC50 [µM],Structure (SMILES)
1,3.53,"C=CC(=O)N1CC2(CCN(c3cn4ccnc4c(-c4cc(O)ccc4C)c3C#N)C2)C1 [Example 1-29, 8-(5-hydroxy-2-methylphenyl)-6-(2-(2-propenoyl)-2,6-diazaspiro[3.4]octan-6-yl)imidazo[1,2-a]pyridine-7-carbonitrile]"
2,0.823,"C=CC(=O)N1CC2(C1)CN(c1cc3ccccc3c(-c3c(C)ccc4[nH]ncc34)c1C#N)C2 [Example 1-34, 1-(5-methyl-1H-indazol-4-yl)-3-(6-(2-propenoyl)-2,6-diazaspiro[3.3]heptan-2-yl)-2-naphthalenecarbonitrile]"
3,9.01,"C=CC(=O)N1CC2(CCN(c3nc(-c4c(C)ccc5[nH]ncc45)c4ccc(C)cc4n3)C2)C1 [Example 1-40, 1-(6-(7-methyl-4-(5-methyl-1H-indazol-4-yl)-2-quinazolinyl)-2,6-diazaspiro[3.4]octan-2-yl)-2-propen-1-one]"
4,0.791,"C=C(Br)C(=O)N1CC2(CCN(c3nc4c(F)cccc4c(-c4c(C)ccc5[nH]ncc45)c3C#N)C2)C1 [Example 1-51, 2-(2-(2-bromo-2-propenoyl)-2,6-diazaspiro[3.4]octan-6-yl)-8-fluoro-4-(5-methyl-1H-indazol-4-yl)-3-quinolinecarbonitrile]"
5,2.02,"C=CC(=O)N1CC2(CCN(c3nc4c(c(-c5ccccc5F)c3C#N)CCCC4)C2)C1 [Example 2-7, 4-(2-fluorophenyl)-2-(2-(2-propenoyl)-2,6-diazaspiro[3.4]octan-6-yl)-5,6,7,8-tetrahydro-3-quinolinecarbonitrile]"
6,0.846,"C=CC(=O)N1CC2(CCN(c3nc4c(c(-c5cc(O)cc(C(F)(F)F)c5F)c3C)CCC(C)(C)C4)C2)C1 [Example 2-22, 1-(6-(4-(2-fluoro-5-hydroxy-3-(trifluoromethyl)phenyl)-3,7,7-trimethyl-5,6,7,8-tetrahydro-2-quinolinyl)-2,6-diazaspiro[3.4]octan-2-yl)-2-propen-1-one]"
7,0.735,"C=CC(=O)N1CC2(CCN(c3nc4c(c(-c5c(C)ccc6cn[nH]c56)c3C)CCC(C)(C)C4)C2)C1 [Example 2-23, 1-(6-(3,7,7-trimethyl-4-(6-methyl-1H-indazol-7-yl)-5,6,7,8-tetrahydro-2-quinolinyl)-2,6-diazaspiro[3.4]octan-2-yl)-2-propen-1-one]"
8,0.234,"C=CC(=O)N1CC2(CCN(c3nc4c(c(-c5cc(O)cc(F)c5F)c3C)CCC(C)(C)C4)C2)C1 [Example 2-26, 1-(6-(4-(2,3-difluoro-5-hydroxyphenyl)-3,7,7-trimethyl-5,6,7,8-tetrahydro-2-quinolinyl)-2,6-diazaspiro[3.4]octan-2-yl)-2-propen-1-one]"
9,0.903,"C=CC(=O)N1CC2(CCN(c3nc4ccccc4c(-c4c(Cl)ccc5[nH]ncc45)c3C)C2)C1 [Example 2-29, 1-(6-(4-(5-chloro-1H-indazol-4-yl)-3-methyl-2-quinolinyl)-2,6-diazaspiro[3.4]octan-2-yl)-2-propen-1-one]"
10,0.75,"C=CC(=O)N1CC2(CCN(c3nc4c(c(-c5cccc6ccn(C)c56)c3C#N)COC(C)(C)C4)C2)C1 [Example 2-30, 7,7-dimethyl-4-(1-methyl-1H-indol-7-yl)-2-(2-(2-propenoyl)-2,6-diazaspiro[3.4]octan-6-yl)-7,8-dihydro-5H-pyrano[4,3-b]pyridine-3-carbonitrile]"
11,0.808,"C=CC(=O)N1CC2(CCN(c3nc4c(c(-c5cc(Cl)cc6cnn(C)c56)c3C)COC(C)(C)C4)C2)C1 [Example 2-32, 1-(6-(4-(5-chloro-1-methyl-1H-indazol-7-yl)-3,7,7-trimethyl-7,8-dihydro-5H-pyrano[4,3-b]pyridin-2-yl)-2,6-diazaspiro[3.4]octan-2-yl)-2-propen-1-one]"
